In brackets after ≈: the same amount, converted by molar mass. Bounds are passed on as bounds.

Data set [1] in a line: Inhibition of Escherichia coli DNA supercoiling assessed as reduction in protein synthesis by firefly luciferase gene assay. The class given is functional.
In data set [2] the test system is Escherichia coli. Put plainly: Antibacterial activity against wild-type Escherichia coli SQ110 DTC incubated for 16 to 20 hrs by CLSI based broth microdilution method. The class given is functional. To be noted: time 16-20 hrs.
Data set [3] has as its system Escherichia coli. Briefly: Antibacterial activity against Escherichia coli SQ110 DTC harboring 23S rRNA A2058G mutant incubated for 16 to 20 hrs by CLSI based broth microdilution method. It counts as functional. To be noted: time 16-20 hrs.
Data set [4] deals with Escherichia coli. Put plainly: Antibacterial activity against Escherichia coli SQ110 DTC harboring 23S rRNA A2058G/Gyr A Ser83Leu mutant incubated for 16 to 20 hrs by CLSI based broth microdilution method. The class given is functional. To be noted: time 16-20 hrs. For orientation: Dilution methods test growth across graded concentrations, often in twofold steps.
For data set [5], the system named is Escherichia coli. Put plainly: Selectivity ratio of MIC for Escherichia coli SQ110 DTC harboring 23S rRNA A2058G mutant to MIC for wild-type Escherichia coli SQ110 DTC. It counts as functional.
Data set [6] deals with Escherichia coli. Put plainly: Antibacterial activity against Escherichia coli SQ110 DTC harboring Gyr A Ser83Leu mutant incubated for 16 to 20 hrs by CLSI based broth microdilution method. To be noted: time 16-20 hrs. The class given is functional.
The test system of data set [7] is Escherichia coli. Put plainly: Selectivity ratio of MIC for Escherichia coli SQ110 DTC harboring 23S rRNA A2058G/Gyr A Ser83Leu mutant to MIC for wild-type Escherichia coli SQ110 DTC. The class given is functional.
Data set [8] concerns Escherichia coli. Put plainly: Selectivity ratio of MIC for Escherichia coli SQ110 DTC harboring Gyr A Ser83Leu mutant to MIC for wild-type Escherichia coli SQ110 DTC. It counts as functional.
The nature of data set [9]: Metabolic stability in human liver microsomes assessed as half life at 1 uM incubated upto 60 mins in presence of NADPH by LC-MS/MS analysis. The class given is ADME, Microsome. For orientation: Liver microsomes are vesicles of endoplasmic reticulum, rich in cytochrome P450 enzymes.
Data set [10] relates to Staphylococcus aureus. Briefly: Bactericidal activity against methicillin-resistant Staphylococcus aureus PU 20 harboring c-ermA gene incubated for 16 to 20 hrs by CLSI based broth microdilution method. It counts as functional. To be noted: time 16-20 hrs.
Data set [11] has as its system Haemophilus influenzae. Briefly: Selectivity ratio of MBC for Haemophilus influenzae ATCC 49247 to MIC for Haemophilus influenzae ATCC 49247. It counts as functional.
In data set [12] the test system is Streptococcus pyogenes. Briefly: Antibacterial activity against Streptococcus pyogenes 01-968 harboring i-ermB gene incubated for 16 to 20 hrs by CLSI based broth microdilution method. It counts as functional. To be noted: time 16-20 hrs.
For data set [13], the system named is Haemophilus influenzae. Briefly: Bactericidal activity against Haemophilus influenzae ATCC 49247 incubated for 16 to 20 hrs by CLSI based broth microdilution method. The class given is functional. To be noted: time 16-20 hrs.
Data set [14] concerns Haemophilus influenzae. Put plainly: Antibacterial activity against Haemophilus influenzae ATCC 49247 incubated for 16 to 20 hrs by CLSI based broth microdilution method. It counts as functional. Conditions: time 16-20 hrs.
Data set [15] concerns Streptococcus pyogenes. Put plainly: Selectivity ratio of MBC for Streptococcus pyogenes 01-968 harboring i-ermB gene to MIC for Streptococcus pyogenes 01-968 harboring i-ermB gene. It counts as functional.
For data set [16], the system named is Streptococcus pneumoniae. Put plainly: Selectivity ratio of MBC for Streptococcus pneumoniae PU 09 harboring mef gene to MIC for Streptococcus pneumoniae PU 09 harboring mef gene. The class given is functional.
In data set [17] the test system is Streptococcus pneumoniae. Briefly: Selectivity ratio of MBC for Streptococcus pneumoniae 07P390 harboring c-erm gene to MIC for Streptococcus pneumoniae 07P390 harboring c-erm gene. The class given is functional.
In data set [18] the test system is Streptococcus pneumoniae. Put plainly: Bactericidal activity against Streptococcus pneumoniae ATCC 49619 incubated for 16 to 20 hrs by CLSI based broth microdilution method. It counts as functional. Conditions: time 16-20 hrs.
In data set [19] the test system is Streptococcus pneumoniae. Put plainly: Bactericidal activity against Streptococcus pneumoniae PU 09 harboring mef gene incubated for 16 to 20 hrs by CLSI based broth microdilution method. The class given is functional. To be noted: time 16-20 hrs.
Data set [20] is described as follows: Metabolic stability in rat liver microsomes assessed as unchanged drug at 1 uM incubated upto 60 mins in presence of NADPH by LC-MS/MS analysis. The class given is ADME, Microsome. Conditions: read-out: Stability.
In data set [21] the test system is Streptococcus pyogenes. Briefly: Bactericidal activity against Streptococcus pyogenes 01-968 harboring i-ermB gene incubated for 16 to 20 hrs by CLSI based broth microdilution method. It counts as functional. To be noted: time 16-20 hrs.
A short description of data set [22]: Metabolic stability in human liver microsomes assessed as unchanged drug at 1 uM incubated upto 60 mins in presence of NADPH by LC-MS/MS analysis. The class given is ADME, Microsome. Conditions: read-out: Stability.
Data set [23] concerns Streptococcus pneumoniae. Briefly: Antibacterial activity against Streptococcus pneumoniae 07P390 harboring c-erm gene incubated for 16 to 20 hrs by CLSI based broth microdilution method. It counts as functional. Conditions: time 16-20 hrs.
The subject of data set [24] is Staphylococcus aureus. Put plainly: Bactericidal activity against methicillin-resistant Staphylococcus aureus PU 32 harboring i-ermA gene incubated for 16 to 20 hrs by CLSI based broth microdilution method. It counts as functional. Conditions: time 16-20 hrs.
Data set [25] has as its system Streptococcus pneumoniae. Put plainly: Antibacterial activity against Streptococcus pneumoniae ATCC 49619 incubated for 16 to 20 hrs by CLSI based broth microdilution method. It counts as functional. To be noted: time 16-20 hrs.
Data set [26] relates to Streptococcus pneumoniae. Briefly: Bactericidal activity against Streptococcus pneumoniae 07P390 harboring c-erm gene incubated for 16 to 20 hrs by CLSI based broth microdilution method. It counts as functional. To be noted: time 16-20 hrs.
Data set [27] relates to Staphylococcus aureus. Briefly: Selectivity ratio of MBC for methicillin-resistant Staphylococcus aureus PU 32 harboring i-ermA gene to MIC for methicillin-resistant Staphylococcus aureus PU 32 harboring i-ermA gene. It counts as functional.
In data set [28] the test system is Staphylococcus aureus. Briefly: Antibacterial activity against methicillin-resistant Staphylococcus aureus PU 20 harboring c-ermA gene incubated for 16 to 20 hrs by CLSI based broth microdilution method. Conditions: time 16-20 hrs. It counts as functional.
Data set [29] in a line: Metabolic stability in human liver microsomes assessed as intrinsic clearance in liver at 1 uM incubated upto 60 mins in presence of NADPH by LC-MS/MS analysis. It counts as ADME, Microsome. To be noted: read-out: CLH.
The subject of data set [30] is Streptococcus pneumoniae. Briefly: Antibacterial activity against Streptococcus pneumoniae PU 09 harboring mef gene incubated for 16 to 20 hrs by CLSI based broth microdilution method. The class given is functional. To be noted: time 16-20 hrs.
Data set [31] deals with Staphylococcus aureus. Put plainly: Antibacterial activity against methicillin-resistant Staphylococcus aureus PU 32 harboring i-ermA gene incubated for 16 to 20 hrs by CLSI based broth microdilution method. To be noted: time 16-20 hrs. It counts as functional.
In data set [32] the test system is Streptococcus pneumoniae. Briefly: Selectivity ratio of MBC for Streptococcus pneumoniae ATCC 49619 to MIC for Streptococcus pneumoniae ATCC 49619. It counts as functional.
Data set [33] is described as follows: Metabolic stability in Escherichia coli SQ110 DTC assessed as unchanged drug at 5 to 10 times MIC measured after 60 mins by LC-MS/MS analysis. The class given is ADME. Conditions: Escherichia coli SQ110 DTC cells, read-out: Stability.
Data set [34] has as its system HepG2. Put plainly: Cytotoxicity against human HepG2 cells assessed as cell viability at 5 to 50 uM incubated for 48 hrs by CCK8 assay. The class given is toxicity, cell-based. To be noted: hepg2, 48 h, dose 5-50 µM.
Data set [35] concerns the target DNA gyrase (Escherichia coli, UniProt P0AES4+P0AES6). Briefly: Inhibition of Escherichia coli DNA gyrase using pBR322 DNA as substrate incubated for 30 mins by electrophoresis. It counts as protein-complex assay.
Data set [36] concerns HEK-293T. Briefly: Cytotoxicity against HEK293T cells assessed as cell viability at 5 to 50 uM incubated for 48 hrs by CCK8 assay. It counts as toxicity, cell-based. To be noted: human, dose 5-50 µM.

By IC50 is commonly meant the midpoint of a concentration-inhibition curve. In the case of `CC[C@H]1OC(=O)[C@H](C)[C@@H](O[C@H]2C[C@@](C)(OC)[C@@H](O)[C@H](C)O2)[C@H](C)[C@@H](O[C@@H]2O[C@H](C)C[C@H](N(C)C)[C@H]2O)[C@](C)(O)C[C@@H](C)C(=O)[C@H](C)[C@@H](O)[C@]1(C)O` [ERYTHROMYCIN], the IC50 in [1] was determined as 1.1 µM. Besides, the MIC in data set [2] was 2 µg/mL (≈ 2.73 µM); in data set [3], > 128 µg/mL; in [4] it was > 128 µg/mL; in data set [6], 2 µg/mL (≈ 2.73 µM). Also, the values for the Selectivity ratio in [5], in data set [7] and in data set [8] were >64, >64 and 1, respectively.
In general, half-life refers to the time in which the quantity being followed falls by half. With `CC[C@H]1OC(=O)[C@H](C)[C@@H](OC(=O)CCNCCCCCNc2cc3c(cc2F)c(=O)c(C(=O)O)cn3C2CC2)[C@H](C)[C@@H](O[C@@H]2O[C@H](C)C[C@H](N(C)C)[C@H]2O)[C@](C)(OC)C[C@@H](C)/C(=N\OC)[C@H](C)[C@H]2OC(=O)O[C@@]21C`, the half-life at 1 µM in data set [9] turned out to be 0.955 h. The MBC in data set [10] is > 256 µg/mL; in data set [13], 256 µg/mL (≈ 245 µM); in data set [18] it was 0.125 µg/mL (≈ 0.119 µM); in [19] it was 1 µg/mL (≈ 0.956 µM); in data set [21] it was > 0.062 µg/mL; in data set [24], 8 µg/mL (≈ 7.65 µM). In data set [26], this molecule yielded an MBC of 2 µg/mL (≈ 1.91 µM). In addition, the Selectivity ratio is 1 in data set [11]; >8 in [15]; 2 in data set [16]; 2 in [17]; 8 in [27]; 2 in data set [32]. Moreover, the MIC in data set [12] was ≤ 0.008 µg/mL; in [14] it was 256 µg/mL (≈ 245 µM); in [23], 1 µg/mL (≈ 0.956 µM); in [25] it was 0.062 µg/mL (≈ 0.0593 µM); in [28] it was 128 µg/mL (≈ 122 µM); in data set [30], 0.5 µg/mL (≈ 0.478 µM). The MIC in data set [31] was 1 µg/mL (≈ 0.956 µM). Also, the remaining at 1 h, 1 µM in data set [20] turned out to be 98.4%; in data set [22], 42%. Also, the CLint scaled at 1 µM in [29] is 21.8 mL/min/kg.
With `CC[C@H]1OC(=O)[C@H](C)[C@@H](OC(=O)CCNCCCCNc2cc3c(cc2F)c(=O)c(C(=O)O)cn3C2CC2)[C@H](C)[C@@H](O[C@@H]2O[C@H](C)C[C@H](N(C)C)[C@H]2O)[C@](C)(OC)C[C@@H](C)/C(=N\OCC#Cc2cncc(C(=O)NC)c2)[C@H](C)[C@H]2OC(=O)O[C@@]21C`, the half-life at 1 µM in [9] came out at 7.65 h. Moreover, the MBC in [10] is > 256 µg/mL; in data set [13], 4 µg/mL (≈ 3.36 µM); in data set [18] it was 0.008 µg/mL (≈ 0.00672 µM); in data set [19] it was 0.008 µg/mL (≈ 0.00672 µM); in data set [21] it was > 0.5 µg/mL; in data set [24] it was 32 µg/mL (≈ 26.9 µM). Further, in data set [26], the MBC came out at 1 µg/mL (≈ 0.84 µM). In addition, the concentration for half-maximal inhibition (IC50) was determined as 0.74 µM in data set [1] and 11.9 µM in data set [35]. Besides, the Selectivity ratio was 2 in data set [11]; >8 in data set [15]; 8 in data set [17]; 1 in data set [5]; 1 in data set [27]; >32 in [7]. Also, the results for the Selectivity ratio in [8] and in [32] were 2 and “>=1”, respectively. Moreover, the MIC in [12] is 0.06 µg/mL (≈ 0.0504 µM); in [14], 2 µg/mL (≈ 1.68 µM); in data set [2], 4 µg/mL (≈ 3.36 µM); in data set [3] it was 4 µg/mL (≈ 3.36 µM); in data set [4] it was > 128 µg/mL; in data set [6], 8 µg/mL (≈ 6.72 µM). Moreover, the MIC in data set [23] was 0.12 µg/mL (≈ 0.101 µM); in data set [25] it was ≤ 0.008 µg/mL; in data set [28], > 256 µg/mL; in data set [30] it was ≤ 0.008 µg/mL; in data set [31], 32 µg/mL (≈ 26.9 µM). Also, the remaining at 1 h, 1 µM in data set [20] is 70.6%; in data set [22] it was 91.3%. For the same molecule, in [33], the remaining at 1 h worked out at 84.3%. In addition, the Activity entry in data set [34] and in data set [36] was “Non-Toxic” each time. Also, the CLint scaled at 1 µM in data set [29] was found to be 2.7 mL/min/kg.

The record behind these values is ChEMBL document CHEMBL5608186, “Design, synthesis and structure-activity relationships of novel non-ketolides: 9-Oxime clarithromycin featured with seven-to thirteen-atom-length diamine linkers at 3-OH” (Eur J Med Chem, 2024).
